Test results: paper PMC12040169 (PLOS Biology, 2025)

Test: in vitro
Settings: human, hela cells, % viability

Q: With Cc1nn(CCC(=O)NC(C)(C)CN2CCCC(C)C2)c(C)c1C (stereo not shown) [CBK282676] as the compound, how does the viability at 28.5 h, 10 µM read?
A: 91.4%

Q: For N#Cc1sc2nc(-c3ccncc3)ccc2c1N [CBK288547], which viability at 28.5 h, 10 µM is on record?
A: 78.3%

Q: With Fc1cccc(SCc2ccccc2)c1 [CBK002912] as the compound, how does the viability at 28.5 h, 10 µM read?
A: 117%

Q: Which viability at 28.5 h, 10 µM does the source give for O=C(O)c1cc(S(=O)(=O)Nc2nnc(C(F)(F)F)s2)c(F)cc1Cl [CBK062022] here?
A: 95%

Q: With COc1cccc(COc2nccnc2-c2ccc(C)cc2C)c1OC [CBK106995] as the compound, how does the viability at 28.5 h, 10 µM read?
A: 93.2%

Q: With O=C(O)CN1C(=O)C2(CC(=O)N(Cc3ccccc3)C2=O)c2cc(F)ccc21 (stereo not shown) [CBK076173] as the compound, how does the viability at 28.5 h, 10 µM read?
A: 99.3%

Q: Which viability at 28.5 h, 10 µM does the source give for CCOc1ccc(N(Cc2cc3cc(C)ccc3nc2O)C(=O)c2ccccc2OC)cc1 [CBK265427] here?
A: 103%

Q: For CN(C)CCCNC(=O)C1CCCCN1S(=O)(=O)c1ccc(C(C)(C)C)cc1 (stereo not shown) [CBK200070], which viability at 28.5 h, 10 µM is on record?
A: 101%

Q: For O=C(CN(c1ccccc1)S(=O)(=O)c1ccccc1[N+](=O)[O-])Nc1ccc(I)cc1 [CBK263755], which viability at 28.5 h, 10 µM is on record?
A: 58.3%

Q: With COc1ccccc1-c1noc(CCCC(=O)Nc2cccc(C(F)(F)F)c2)n1 [CBK268794] as the compound, how does the viability at 28.5 h, 10 µM read?
A: 96.3%

Q: Which viability at 28.5 h, 10 µM does the source give for C=C(C)CN1CCN(C(=O)C2Cc3cc(Cl)ccc3O2)CC1 (stereo not shown) [CBK282639] here?
A: 89%

Q: Which viability at 28.5 h, 10 µM does the source give for CCN(CC)C(=O)c1[nH]c2ccccc2c1NS(=O)(=O)c1ccc(C(F)(F)F)cc1[N+](=O)[O-] [CBK050109] here?
A: 103%

Q: With CC(NC(=O)Cc1cccc(F)c1)c1nnc2n1CCCCC2 (stereo not shown) [CBK305975] as the compound, how does the viability at 28.5 h, 10 µM read?
A: 85.8%

Q: Which viability at 28.5 h, 10 µM does the source give for Cc1oc(C(C)(C)C)cc1C(=O)Nc1ccc(C(F)(F)F)cc1 [CBK057251] here?
A: 87%

Q: For Cc1cccc(C)c1NC(=O)CN1CCC(Oc2cncc(OCC3COc4ccccc4O3)n2)C1 (stereo not shown) [CBK084373], which viability at 28.5 h, 10 µM is on record?
A: 98.5%

Q: For O=c1cc(C(F)F)c2cn(C3CCCC3)nc2[nH]1 [CBK288016], which viability at 28.5 h, 10 µM is on record?
A: 91.8%

Q: For CCCS(=O)(=O)NC1CCN(c2nc(C(F)(F)F)nc3ccsc23)CC1 [CBK304591], which viability at 28.5 h, 10 µM is on record?
A: 87%

Q: With Cc1cc(C)n2ncc(C(=O)N3CCCCC3c3ccccn3)c2n1 (stereo not shown) [CBK307257] as the compound, how does the viability at 28.5 h, 10 µM read?
A: 90.4%

Q: Which viability at 28.5 h, 10 µM does the source give for Cc1nn(CC(=O)OC2CCCCC2)c(=O)c2cc3ccsc3n12 [CBK284058] here?
A: 82.5%

Q: With Cn1nc(C(C)(C)C)c2cc(C(=O)N3CCn4nccc43)cnc21 [CBK305466] as the compound, how does the viability at 28.5 h, 10 µM read?
A: 93.3%

Q: For CC1(C)CC(=O)c2cc(C(N)=O)c(=O)n(-c3ccc(Cl)cc3)c2C1 [CBK293936], which viability at 28.5 h, 10 µM is on record?
A: 88.8%

Q: With COCC1CCN(c2ncc(C#N)cc2Cl)CC1 [CBK306410] as the compound, how does the viability at 28.5 h, 10 µM read?
A: 61.1%

Q: Which viability at 28.5 h, 10 µM does the source give for Cc1cc(C)nc(SCc2csc(N)n2)n1 [CBK019838] here?
A: 106%

Q: Which viability at 28.5 h, 10 µM does the source give for CN1CCN(C(=O)CCc2nc(-c3ccc(Cl)cc3)no2)CC1 [CBK268304] here?
A: 117%

Q: With COc1ccc(OCCN2C(=O)CNC2=S)cc1 [CBK007177] as the compound, how does the viability at 28.5 h, 10 µM read?
A: 77%

Q: For CCCn1ccnc1CN1CCCC(CC2CC2)(C(=O)O)C1 (stereo not shown) [CBK307205], which viability at 28.5 h, 10 µM is on record?
A: 100%

Q: Which viability at 28.5 h, 10 µM does the source give for COc1cnc(-c2cnn(C)c2)c(NC(=O)c2ccco2)n1 [CBK145329] here?
A: 103%

Q: For CN1CCC(O)(Cn2cnc3cc(-c4ccc(F)cc4)sc3c2=O)CC1 [CBK307434], which viability at 28.5 h, 10 µM is on record?
A: 101%

Q: With Fc1ccc(Br)cc1SCCc1ccccn1 [CBK262330G] as the compound, how does the viability at 28.5 h, 10 µM read?
A: 86.7%

Q: For CC1CC1C(=O)N1CCCC(c2cc3cccnc3[nH]2)C1 (stereo not shown) [CBK282156], which viability at 28.5 h, 10 µM is on record?
A: 80.3%

Q: For Cc1cc2ccccc2n2c(=O)n(CC(=O)N3CCCCCC3)nc12 [CBK283883], which viability at 28.5 h, 10 µM is on record?
A: 82.3%

Q: With C=CCN1C(=O)C2(CC(=O)N(CCOc3ccccc3)C2=O)c2ccccc21 (stereo not shown) [CBK075159] as the compound, how does the viability at 28.5 h, 10 µM read?
A: 101%

Q: For CC1CC(=O)N(c2cccc(C(=O)Nc3cccc(-c4cccc(F)c4)c3)c2)C1=O (stereo not shown) [CBK285734], which viability at 28.5 h, 10 µM is on record?
A: 103%

Q: Which viability at 28.5 h, 10 µM does the source give for CC1CC(C)CN(C(=O)c2ccccc2NC(=O)C2CC(=O)Nc3ccccc32)C1 (stereo not shown) [CBK297760] here?
A: 81.8%

Q: Which viability at 28.5 h, 10 µM does the source give for COc1ccc(C)cc1NC(=S)NCc1cnn(C)c1 [CBK267025] here?
A: 106%

Q: For CCCc1cc(C(=O)NC(c2ccccc2)c2cccnc2)[nH]n1 (stereo not shown) [CBK282462], which viability at 28.5 h, 10 µM is on record?
A: 93.8%

Q: With NS(=O)(=O)c1ccc(CCNC(=O)c2ccc3c(c2)OCCO3)cc1 [CBK268128] as the compound, how does the viability at 28.5 h, 10 µM read?
A: 104%

Q: Which viability at 28.5 h, 10 µM does the source give for Nc1ncc(-c2cccnc2)nc1-c1ccc(C(=O)N2CCOCC2)cc1 [CBK064059] here?
A: 93.4%

Q: For O=C(NCCCc1ccccc1Cl)c1ccc(=O)n(CC(=O)N2CCCCC2)c1 [CBK286078], which viability at 28.5 h, 10 µM is on record?
A: 85.9%

Q: Which viability at 28.5 h, 10 µM does the source give for Cc1ccccc1OCCn1c(CCCO)nc2ccccc21 [CBK266182] here?
A: 115%

Q: With Nc1ccn(C2CC(O)C(CO)O2)c(=O)n1 (stereo not shown) [CBK201203] as the compound, how does the viability at 28.5 h, 10 µM read?
A: 95.4%

Q: For Cc1ccc2c(c1)C1(CC(=O)N(C)C1=O)C(=O)N2CCOc1cccc2c1OCCO2 (stereo not shown) [CBK075529], which viability at 28.5 h, 10 µM is on record?
A: 99.6%

Q: With Cc1nnc(SCC(=O)N2c3ccccc3Sc3ccccc32)n1N [CBK265920] as the compound, how does the viability at 28.5 h, 10 µM read?
A: 96.5%

Q: For CN1CCC(NC2(Cc3cc(-c4ccccn4)on3)COC2)CC1 [CBK289249], which viability at 28.5 h, 10 µM is on record?
A: 88.7%

Q: For COc1ccc(N2CCN(c3cncc(-c4cccs4)n3)CC2)cc1OC [CBK065687], which viability at 28.5 h, 10 µM is on record?
A: 104%

Q: With CNC(=O)c1cc(NC(=O)NCC2CC(=O)N(CCOC)C2)ccc1F (stereo not shown) [CBK304403] as the compound, how does the viability at 28.5 h, 10 µM read?
A: 107%

Q: For COc1cccc(Nc2cc(-c3ccc(N4CCOCC4)cc3)ncn2)c1 [CBK090733], which viability at 28.5 h, 10 µM is on record?
A: 68.7%

Q: Which viability at 28.5 h, 10 µM does the source give for N#CCCCN1CCC(Oc2nccnc2OCc2ccc(Br)cc2F)CC1 [CBK153647] here?
A: 94.7%

Q: Which viability at 28.5 h, 10 µM does the source give for CSCc1ccc(C(=O)Nc2cc(C(=O)O)ccc2C)cc1 [CBK297107] here?
A: 93%

Q: With Cc1cc(Cl)ccc1Nc1nnc(C)c(=O)[nH]1 [CBK287922] as the compound, how does the viability at 28.5 h, 10 µM read?
A: 110%

Q: For O=C(c1cccs1)N1CCC(c2n[nH]c3ncccc23)CC1 [CBK284904], which viability at 28.5 h, 10 µM is on record?
A: 92.3%

Q: For Cc1sc(NC(=O)C2C3C=CC(C3)C2C(=O)O)c(C(N)=O)c1C (stereo not shown) [CBK263685], which viability at 28.5 h, 10 µM is on record?
A: 87.6%

Q: Which viability at 28.5 h, 10 µM does the source give for CCn1cc(C(=O)N2CCc3sccc3C2)c(=O)c2ccc(C)nc21 [CBK305006] here?
A: 94.3%

Q: With COCCn1nc(C(=O)N(C)Cc2nc3ccccc3s2)ccc1=O [CBK305338] as the compound, how does the viability at 28.5 h, 10 µM read?
A: 91.8%

Q: For Cc1cc(C)c2c(n1)OC(N1CCOCC1)(C(F)(F)F)CC2=O (stereo not shown) [CBK267301], which viability at 28.5 h, 10 µM is on record?
A: 79.2%

Q: Which viability at 28.5 h, 10 µM does the source give for CC(NC(=O)C1CCN(CCCN(C)S(C)(=O)=O)CC1)c1cccc2ccccc12 (stereo not shown) [CBK148651] here?
A: 104%

Q: For CCN(CC(=O)NC(C)(C)C)S(=O)(=O)c1cccc(C#N)c1 [CBK306087], which viability at 28.5 h, 10 µM is on record?
A: 114%

Q: With CC(=O)N1c2ccccc2N(C(C)=O)C1c1ccc(C2N(C(C)=O)c3ccccc3N2C(C)=O)[nH]1 [CBK007216] as the compound, how does the viability at 28.5 h, 10 µM read?
A: 110%

Q: Which viability at 28.5 h, 10 µM does the source give for Nc1ncc(-c2cccc3cccnc23)nc1N1CCC[C@@H]1CO [CBK063470] here?
A: 108%

Q: With COCC(=O)N1CCc2sccc2C1c1ccc(NC(=O)c2ccco2)cc1 (stereo not shown) [CBK286200] as the compound, how does the viability at 28.5 h, 10 µM read?
A: 95.6%

Q: With COc1cccc(CNC(=O)c2cn[nH]c2-c2cccc(C)c2)c1 [CBK288056] as the compound, how does the viability at 28.5 h, 10 µM read?
A: 102%

Q: Which viability at 28.5 h, 10 µM does the source give for O=C1NC(=O)C(CC(=O)N2CCCC3(CCN(C(=O)c4cc(F)c(F)cc4F)C3)C2)N1 (stereo not shown) [CBK131550] here?
A: 96.2%

Q: With O=c1cc(N2CCOCC2)oc2cccc(O)c12 [CBK016536] as the compound, how does the viability at 28.5 h, 10 µM read?
A: 91.3%

Q: With O=C(O)C(Cc1c[nH]c2ccccc12)N1C(=O)C2C3c4ccccc4C(c4ccccc43)C2C1=O (stereo not shown) [CBK265377] as the compound, how does the viability at 28.5 h, 10 µM read?
A: 91.4%
